The subject of experiment [1] is SMN2 minigene mRNA (SMN2-A minigene) in HEK293H cells. The experiment in a line: SMN2 minigene mRNA splicing RT-qPCR assay in cultured cells. It is filed as cell-based, human. As to conditions: Homo sapiens, HEK293-H; concentration increasing full length SMN2 mRNA 1.5-fold relative to vehicle-treated cells; HEK293H cells with SMN2-A minigene, 24 hours, 7-point concentration data; read-out: EC1.5x for production of full length SMN2 mRNA. An outline of the steps:
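Cells are seeded, left to attach 4-6 h, then dosed with test compound across seven concentrations and incubated 24 h. Lysates undergo RT-qPCR with primers/probe specific to the exon 7-containing minigene transcript, co-amplified with GAPDH. Fold change over vehicle is calculated, and EC1.5× marks the 1.5-fold point.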

Experiment [2] has as its system Smn protein in SMA patient fibroblast cells (GM03813). Description: Smn protein assay in cultured cells (SMN HTRF). As to conditions: SMA patient fibroblast cells, 48 hours; for EC1.5x for Smn protein expression: 7-point concentration curve, SMN HTRF, concentration producing 1.5 times Smn protein vs DMSO vehicle control; for maximum fold (Fold) increase of Smn protein: 7-point concentration data, fold relative to vehicle control. It is filed as cell-based, human. In a few lines:
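Patient-derived SMA fibroblasts are plated, given compound for 48 h, then lysed in RIPA buffer with protease inhibitors. Lysate Smn is detected by an anti-SMN d2/kryptate HTRF pair incubated overnight. The normalized ΔF is divided by the vehicle ΔF to give fold change, from which EC1.5× and maximum fold are taken.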

Bounds are passed on as bounds.

On to `CCc1nc(C)cn2nc(-c3cc(=O)n4cc(N(C)CCN(C)C)ccc4n3)cc12` [Compound 825, 7-{[2-(dimethylamino)ethyl](methyl)amino}-2-(4-ethyl-6-methylpyrazolo[1,5-a]pyrazin-2-yl)-4H-pyrido[1,2-a]pyrimidin-4-one], for which, in experiment [1], the EC (1.5-fold increase) lay within 0.3 to 1 µM. Also, in experiment [2], the “EC1.5x for Smn protein expression” value is “** (an EC1.5× between >1 μM and ≤3 μM is indicated by two stars (**))”; the “maximum fold (Fold) increase of Smn protein” value (shortened to “maximum fold (Fold) increase”) is reported as “***** (a fold increase >1.65 is indicated by five stars (*****))”.

For the compound `Cc1cn2cc(-c3cc(=O)n4cc(N5CCN(C)CC5)ccc4n3)cc(C)c2n1` [Compound 808, 2-(2,8-dimethylimidazo[1,2-a]pyridin-6-yl)-7-(4-methylpiperazin-1-yl)-4H-pyrido[1,2-a]pyrimidin-4-one], in experiment [1], the EC (1.5-fold increase) is below 0.1 µM. Moreover, in experiment [2], the “EC1.5x for Smn protein expression” value was “**** (an EC1.5x≤0.3 μM is indicated by four stars (****))” and the “maximum fold (Fold) increase” value was “***** (a fold increase >1.65 is indicated by five stars (*****))”.

On to `CCN1CC=C(c2ccc3nc(-c4cc5cnc(C)cn5n4)cc(=O)n3c2)CC1` [Compound 485, 7-(1-ethyl-1,2,3,6-tetrahydropyridin-4-yl)-2-(6-methylpyrazolo[1,5-a]pyrazin-2-yl)-4H-pyrido[1,2-a]pyrimidin-4-one], for which the EC (1.5-fold increase) in experiment [1] was below 0.1 µM. Also, in experiment [2], the “EC1.5x for Smn protein expression” value is “**** (an EC1.5x≤0.3 μM is indicated by four stars (****))” and the “maximum fold (Fold) increase” value is recorded as “***** (a fold increase >1.65 is indicated by five stars (*****))”.

As for `Cc1cn2cc(-c3cc(=O)n4cc(C5CCNCC5)ncc4n3)cc(Cl)c2n1` [Compound 587, 2-(8-chloro-2-methylimidazo[1,2-a]pyridin-6-yl)-7-(piperidin-4-yl)-4H-pyrazino[1,2-a]pyrimidin-4-one], in experiment [1], the EC (1.5-fold increase) is below 0.1 µM. Also, in experiment [2], the “EC1.5x for Smn protein expression” value is on record as “**** (an EC1.5x≤0.3 μM is indicated by four stars (****))”; the “maximum fold (Fold) increase” value was “**** (a fold increase between >1.5 and ≤1.65 is indicated by four stars (****))”.

In the case of `Cc1cn2cc(-c3cc(=O)n4cc(C5CCNCC5)ncc4n3)cc(C)c2n1` [Compound 588, 2-(2,8-dimethylimidazo[1,2-a]pyridin-6-yl)-7-(piperidin-4-yl)-4H-pyrazino[1,2-a]pyrimidin-4-one], in experiment [1], the EC (1.5-fold increase) is below 0.1 µM. Also, in experiment [2], the “EC1.5x for Smn protein expression” value is “**** (an EC1.5x≤0.3 μM is indicated by four stars (****))” and the “maximum fold (Fold) increase” value is “***** (a fold increase >1.65 is indicated by five stars (*****))”.

In the case of `Cc1nc2ccc(-c3cc(=O)n4cc(N5CCC(N(C)C)CC5)ccc4n3)cc2s1` [Compound 285, 7-[4-(dimethylamino)piperidin-1-yl]-2-(2-methyl-1,3-benzothiazol-6-yl)-4H-pyrido[1,2-a]pyrimidin-4-one], in experiment [1], the EC (1.5-fold increase) is below 0.1 µM. Moreover, in experiment [2], the “EC1.5x for Smn protein expression” value is “**** (an EC1.5x≤0.3 μM is indicated by four stars (****))” and the “maximum fold (Fold) increase” value is listed as “***** (a fold increase >1.65 is indicated by five stars (*****))”.

In the case of `Cc1cn2nc(-c3cc(=O)n4cc(C5=CCN(C6CC6)CC5)cc(C)c4n3)cc2c(C)n1` [Compound 483, 7-(1-cyclopropyl-1,2,3,6-tetrahydropyridin-4-yl)-2-(4,6-dimethylpyrazolo[1,5-a]pyrazin-2-yl)-9-methyl-4H-pyrido[1,2-a]pyrimidin-4-one], in experiment [1], the EC (1.5-fold increase) was below 0.1 µM. In experiment [2], the “maximum fold (Fold) increase” value was “** (a fold increase between >1.2 and ≤1.35 is indicated by two stars (**))”.

Regarding `Cc1nc2ccc(-c3cc(=O)n4cc(C5=CCNCC5)ncc4n3)cc2o1.Cl` [Compound 421, 2-(2-methyl-1,3-benzoxazol-6-yl)-7-(1,2,3,6-tetrahydropyridin-4-yl)-4H-pyrazino[1,2-a]pyrimidin-4-one hydrochloride (1:1)], in experiment [1], the EC (1.5-fold increase) is below 0.1 µM. Further, the “maximum fold (Fold) increase” value in experiment [2] is “*** (a fold increase between >1.35 and ≤1.5 is indicated by three stars (***))”.

With `Cc1cn2cc(-c3cc(=O)n4cc(N5CCNC6(CC6)C5)ccc4n3)cc(C)c2n1` [Compound 809, 7-(4,7-diazaspiro[2.5]oct-7-yl)-2-(2,8-dimethylimidazo[1,2-a]pyridin-6-yl)-4H-pyrido[1,2-a]pyrimidin-4-one], in experiment [1], the EC (1.5-fold increase) was below 0.1 µM. For the same compound, in experiment [2], the “EC1.5x for Smn protein expression” value is given as “**** (an EC1.5x≤0.3 μM is indicated by four stars (****))” and the “maximum fold (Fold) increase” value is listed as “***** (a fold increase >1.65 is indicated by five stars (*****))”.

With `Cc1cn2nc(-c3cc(=O)n4cc(N5C[C@@H](C)N[C@@H](C)C5)ccc4n3)cc2c(C)n1` [Compound 131, 7-[(3R,5S)-3,5-dimethylpiperazin-1-yl]-2-(4,6-dimethylpyrazolo[1,5-a]pyrazin-2-yl)-4H-pyrido[1,2-a]pyrimidin-4-one], the EC (1.5-fold increase) in experiment [1] was below 0.1 µM. In experiment [2], the “EC1.5x for Smn protein expression” value was “** (an EC1.5× between >1 μM and ≤3 μM is indicated by two stars (**))”; the “maximum fold (Fold) increase” value was “*** (a fold increase between >1.35 and ≤1.5 is indicated by three stars (***))”.

Regarding `CCc1nc(C)cn2nc(-c3cc(=O)n4cc(OCCN(C)C)cc(C)c4n3)cc12` [Compound 829, 7-[2-(dimethylamino)ethoxy]-2-(4-ethyl-6-methylpyrazolo[1,5-a]pyrazin-2-yl)-9-methyl-4H-pyrido[1,2-a]pyrimidin-4-one], in experiment [1], the EC (1.5-fold increase) was in the range of 0.1 to 0.3 µM. In addition, in experiment [2], the “EC1.5x for Smn protein expression” value is “** (an EC1.5× between >1 μM and ≤3 μM is indicated by two stars (**))”; the “maximum fold (Fold) increase” value is on record as “***** (a fold increase >1.65 is indicated by five stars (*****))”.

For the compound `COc1ccc(-c2cc(=O)n3cc(C4=CCNCC4)cnc3n2)cc1OC` [Cpd 353, 2-(3,4-dimethoxyphenyl)-7-(1,2,3,6-tetrahydropyridin-4-yl)-4H-pyrimido[1,2-a]pyrimidin-4-one], in experiment [1], the EC (1.5-fold increase) lay in the range of 0.1 to 0.3 µM. In addition, in experiment [2], the “maximum fold (Fold) increase” value was “** (a fold increase between >1.2 and ≤1.35 is indicated by two stars (**))”.

In the case of `O=c1cc(-c2ccc3nccn3c2)nc2ccc(N3CCNCC3)cn12` [Compound 108, 2-(imidazo[1,2-a]pyridin-6-yl)-7-(piperazin-1-yl)-4H-pyrido[1,2-a]pyrimidin-4-one], in experiment [1], the EC (1.5-fold increase) lay in the range of 0.1 to 0.3 µM. The “maximum fold (Fold) increase” value in experiment [2] is “*** (a fold increase between >1.35 and ≤1.5 is indicated by three stars (***))”.

With `Cc1nc2c(F)cc(-c3cc(=O)n4cc(N5CCN6CCC[C@H]6C5)ccc4n3)cc2o1` [Compound 803, 2-(4-fluoro-2-methyl-1,3-benzoxazol-6-yl)-7-[(8aS)-hexahydropyrrolo[1,2-a]pyrazin-2(1H)-yl]-4H-pyrido[1,2-a]pyrimidin-4-one], the EC (1.5-fold increase) in experiment [1] is below 0.1 µM. Moreover, in experiment [2], the “EC1.5x for Smn protein expression” value was “**** (an EC1.5x≤0.3 μM is indicated by four stars (****))” and the “maximum fold (Fold) increase” value is “***** (a fold increase >1.65 is indicated by five stars (*****))”.

For the compound `Cn1cc(-c2cc(=O)n3cc(N4CCNCC4)ccc3n2)cn1` [Compound 192, 2-(1-methyl-1H-pyrazol-4-yl)-7-(piperazin-1-yl)-4H-pyrido[1,2-a]pyrimidin-4-one], the EC (1.5-fold increase) in experiment [1] lay within 1 to 3 µM. In experiment [2], the “EC1.5x for Smn protein expression” value was “** (an EC1.5× between >1 μM and ≤3 μM is indicated by two stars (**))”; the “maximum fold (Fold) increase” value is recorded as “***** (a fold increase >1.65 is indicated by five stars (*****))”.

On to `CCc1nc(C)cn2nc(-c3cc(=O)n4cc(C5CCN(C)CC5)cc(C)c4n3)cc12` [Compound 774, 2-(4-ethyl-6-methylpyrazolo[1,5-a]pyrazin-2-yl)-9-methyl-7-(1-methylpiperidin-4-yl)-4H-pyrido[1,2-a]pyrimidin-4-one], for which the EC (1.5-fold increase) in experiment [1] is below 0.1 µM. Moreover, in experiment [2], the “EC1.5x for Smn protein expression” value is recorded as “**** (an EC1.5x≤0.3 μM is indicated by four stars (****))” and the “maximum fold (Fold) increase” value is reported as “***** (a fold increase >1.65 is indicated by five stars (*****))”.

Consider `Cc1cn2nc(-c3cc(=O)n4cc(N5CCNC(C)(C)C5)cc(C)c4n3)cc2c(C)n1` [Compound 544, 7-(3,3-dimethylpiperazin-1-yl)-2-(4,6-dimethylpyrazolo[1,5-a]pyrazin-2-yl)-9-methyl-4H-pyrido[1,2-a]pyrimidin-4-one], for which the EC (1.5-fold increase) in experiment [1] was below 0.1 µM. Further, in experiment [2], the “EC1.5x for Smn protein expression” value was “*** (an EC1.5× between >0.3 μM and ≤1 μM is indicated by three stars (***))”; the “maximum fold (Fold) increase” value is “**** (a fold increase between >1.5 and ≤1.65 is indicated by four stars (****))”.

As to `CN1CCN(c2ccc3nc(-c4ccc5nccn5c4)cc(=O)n3c2)CC1` [Compound 802, 2-(imidazo[1,2-a]pyridin-6-yl)-7-(4-methylpiperazin-1-yl)-4H-pyrido[1,2-a]pyrimidin-4-one], in experiment [1], the EC (1.5-fold increase) was 1 to 3 µM. Besides, in experiment [2], the “EC1.5x for Smn protein expression” value is “* (An EC1.5× for Smn protein expression between >3 μM and ≤10 μM is indicated by one star (*))”; the “maximum fold (Fold) increase” value is “***** (a fold increase >1.65 is indicated by five stars (*****))”.

The values above are taken from US11753407B2, “Compounds for treating spinal muscular atrophy” (PTC Therapeutics, Inc., priority 2012, dated 2023).
